Measured values: patent US20130065958A1, “METHODS FOR DISINFECTING OR STERILIZING ARTICLES” (priority 2011, published 2013)
Values joined by “and” are separate entries in the source; they are usually repeats but may differ in a detail not shown here. Equal values may be shown once. Read-outs that look alike come from different tables or passages of the source.

Test system: Bacillus atrophaeus ATCC 9372 spores
Details: 3 drops, overnight (15 hours) at 35 C
Procedure: Before sealing, the inside surface of the bottle cap (liner removed) or its foam liner had been inoculated with a 10 μL droplet of Bacillus atrophaeus ATCC 9372 spores dried down onto the cap or liner surface. Bacillus atrophaeus ATCC 9372 spores are known to be of relatively high resistance to peroxide disinfection and are a recommended (for example, the U.S. Pharmacopeia) resistant organism for disinfection studies using chemicals (such as peroxide or ethylene oxide) or dry heat.

`OO` [3% hydrogen peroxide, hydrogen peroxide] was tested, and the “CFU Recovered” value (inoculated on cap) was 425000 CFU and 475000 CFU, the “Log Reduction” value (inoculated on cap) was 1.2 and 1.1 and the “CFU Recovered” value (inoculated on liner) was 830000 CFU. For the same compound, the “Log Reduction” value (inoculated on liner) was 0.4.
